In patent US11298333B1, “Methods of reducing the risk of cardiovascular events in a subject” (Amarin Pharmaceuticals Ireland Limited, priority 2018, dated 2022):
Like-named read-outs stand apart in the source and are kept apart here.

Tested on: hypertriglyceridemic patients with cardiovascular disease or at high risk for cardiovascular disease
Assay type: in vivo
Conditions: for Key secondary composite endpoint: relative risk reduction vs placebo / Primary composite endpoint: relative risk reduction vs placebo: over 5 years
Source text: The following study, also referred to as the REDUCE-IT clinical trial, was a large cardiovascular (CV) outcome trial designed to assess CV risk reduction benefit of AMR101 treatment (commercially known as VASCEPA®) versus placebo on the 5-point primary composite endpoint: CV death, non-fatal stroke, non-fatal myocardial infarction (MI), coronary revascularizations, or unstable angina requiring hospitalization.
A multi-center, prospective, randomized, double-blind, placebo-controlled, parallel-group study was performed to evaluate the effect of AMR101 (4 g per day) on cardiovascular health and mortality in hypertriglyceridemic patients with cardiovascular disease or at high risk for cardiovascular disease. The intended expanded indication of the study was treatment with AMR101 as an add-on to statin therapy to reduce the risk of cardiovascular events in patients with clinical cardiovascular disease or with multiple risk factors for cardiovascular disease.
The primary objective of this study was, in patients at LDL-C goal while on statin therapy, with established cardiovascular disease (CVD) or at high risk for CVD, and hypertriglyceridemia (e.g., fasting triglycerides (TG) ≥200 mg/dL and <500 mg/dL), to evaluate the effect of AMR101 4 g daily on time from randomization to first occurrence of any component of the composite of the following major CV events: CV death; nonfatal MI; (including silent MI; electrocardiograms (ECGs) were performed annually for the detection of silent MIs); nonfatal stroke; coronary revascularization; and unstable angina determined to be caused by myocardial ischemia by invasive/non-invasive testing and requiring emergent hospitalization.
The key secondary objective of this study was to evaluate the effect of AMR101 4 g daily on the time from randomization to the first occurrence of the composite of following major CV events: CV death, nonfatal MI (including silent MI), and nonfatal stroke.
Other secondary objectives for this study were to evaluate the effect of therapy on time from randomization to the first occurrence of the following individual or composite endpoints: composite of CV death or nonfatal MI (including silent MI); fatal or nonfatal MI (including silent MI); non-elective coronary revascularization represented as the composite of emergent or urgent classifications; CV death; unstable angina determined to be caused by myocardial ischemia by invasive/non-invasive testing and requiring emergent hospitalization; fatal or nonfatal stroke; composite of total mortality, nonfatal MI (including silent MI), or nonfatal stroke; and total mortality.
Primary Efficacy Endpoint: The primary efficacy endpoint was time from randomization to the first occurrence of the composite of the following clinical events: CV death; nonfatal MI (including silent MI; ECGs were performed annually for the detection of silent MIs); nonfatal stroke; coronary revascularization; and unstable angina determined to be caused by myocardial ischemia by invasive/non-invasive testing and requiring emergent hospitalization. The first occurrence of any of these major adverse vascular events during the follow-up period of the study were included in the incidence.
Secondary Efficacy Endpoints: The key secondary efficacy endpoint was the time from randomization to the first occurrence of the composite of CV death, nonfatal MI (including silent MI), or nonfatal stroke. […]

[1] = 4 g/day, ITT, hierarchical secondary endpoint
[2] = 4 g/day, ITT, median follow-up 4.9 years
[3] = 4 g/day, ITT, time to first event, median follow-up 4.9 years
[4] = 4 g/day, ITT, time to first event
[5] = 4 g/day, ITT, time to first event, listed as AMR101

`CC/C=C\C/C=C\C/C=C\C/C=C\C/C=C\CCCC(=O)OCC` [Icosapent Ethyl, eicosapentaenoic acid ethyl ester] was tested, and the “Cardiac arrest: reduction vs placebo” value (4 g/day) was 48%, the “Reduction in heart attack vs placebo” value (4 g/day) was 31% and the “Sudden death: reduction vs placebo” value (4 g/day) was 31%. The “Cardiovascular death: relative risk reduction vs placebo” value (4 g/day, ITT) was 20%, the “Composite of cardiovascular death or nonfatal myocardial infarction: RRR” value (4 g/day, ITT) was 25% and the “Composite of total mortality, nonfatal myocardial infarction, or nonfatal stroke: RRR” value (4 g/day, ITT) was 23%. The “Fatal or nonfatal myocardial infarction: RRR” value (4 g/day, ITT) was 31%, the “Fatal or nonfatal stroke: RRR” value (4 g/day, ITT) was 28% and the “Total mortality: HR vs placebo” value (4 g/day, ITT) was 0.87. The “Total mortality: relative risk reduction vs placebo” value (4 g/day, ITT) was 13%, the “Cardiovascular death: HR vs placebo” value [1] was 0.80 and the “Cardiovascular death: patients with event” value [1] was 4.3%. The “Total mortality (death from any cause): patients with event” value (4 g/day, ITT, last hierarchical secondary endpoint) was 6.7%, the “Key secondary composite endpoint: absolute risk reduction vs placebo” value [2] was 3.6% and the “Primary composite endpoint: absolute risk reduction vs placebo” value [2] was 4.8%. The “Key secondary composite endpoint (CV death, nonfatal MI, or nonfatal stroke): patients with event” value [3] was 11.2%, the “Primary composite endpoint (CV death, nonfatal MI, nonfatal stroke, coronary revascularization, or unstable angina): patients with event” value [3] was 17.2% and the “Key secondary composite endpoint: relative risk reduction vs placebo” value [4] was 26%. The “Primary composite endpoint: relative risk reduction vs placebo” value [4] was 25%, the “Key secondary composite endpoint: relative risk reduction vs placebo” value [5] was 26% and the “Primary composite endpoint: relative risk reduction vs placebo” value [5] was 25%. For the same molecule, the “Adjudicated tertiary endpoint of heart failure: patients with event” value (4 g/day, no significant difference vs placebo) was 4.1%, the “Primary endpoint: risk reduction in post hoc analysis excluding patients with diarrhea” value (post hoc) was 25% and the “Adjudicated sudden cardiac death: patients with event” value (tertiary endpoint, 4 g/day, ITT) was 1.5%. For the same molecule, the “Cardiac Arrest: HR (95% CI)” value (tertiary endpoint, vs placebo) was 0.52 (0.31, 0.86), the “Coronary Revascularization: HR (95% CI)” value (tertiary endpoint, vs placebo) was 0.66 (0.58, 0.76) and the “Elective Revascularization: HR (95% CI)” value (tertiary endpoint, vs placebo) was 0.68 (0.57, 0.82). For the same molecule, the “Emergent Revascularization: HR (95% CI)” value (tertiary endpoint, vs placebo) was 0.62 (0.42, 0.92), the “Ischemic Stroke: HR (95% CI)” value (tertiary endpoint, vs placebo) was 0.64 (0.49, 0.85) and the “New Heart Failure Requiring Hospitalization: HR (95% CI)” value (tertiary endpoint, vs placebo) was 0.97 (0.77, 1.22). For the same molecule, the “New Heart Failure: HR (95% CI)” value (tertiary endpoint, vs placebo) was 0.95 (0.77, 1.17), the “Primary Endpoint in Patients with Diabetes at Baseline: HR (95% CI)” value (tertiary endpoint, vs placebo) was 0.77 (0.68, 0.87) and the “Salvage Revascularization: HR (95% CI)” value (tertiary endpoint, vs placebo) was 0.00 (0.00, —). The “Urgent Revascularization: HR (95% CI)” value (tertiary endpoint, vs placebo) was 0.66 (0.54, 0.79).
